Laboratory results taken from the supplement of paper PMC13207355.

What was measured:
Settings in all cases: exposure time: 72 h
E13 [1] = patient-derived glioblastoma stem cells of classical subtype; experiment: surviving fraction (nuclei count normalised to DMSO); higher = more cells surviving (less toxic)
E21 [2] = patient-derived glioblastoma stem cells of mesenchymal subtype; experiment: as above
E28 [3] = patient-derived glioblastoma stem cells of classical subtype; experiment: as above
E31 [4] = patient-derived glioblastoma stem cells of proneural subtype; experiment: as above
E34 [5] = patient-derived glioblastoma stem cells of proneural subtype; experiment: as above
E57 [6] = patient-derived glioblastoma stem cells of mesenchymal subtype; experiment: as above
FT3469 [7] = normal neural stem cell line; experiment: as above
E13 [8] = experiment: phenotypic distance (Euclidean, principal components) from DMSO controls (arbitrary units); higher = stronger morphological change
E21 [9] = experiment: as above
E28 [10] = experiment: as above
E31 [11] = experiment: as above
E34 [12] = experiment: as above
E57 [13] = experiment: as above
FT3469 [14] = experiment: as above
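Throughout, for phenotypic distance (Euclidean, principal components) from DMSO controls: cell Painting imaging in 384-well plates, CellProfiler features reduced to at least 20 principal components, Euclidean distance versus same-plate DMSO vehicle wells (0.1% v/v), median over six images per well.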
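Throughout, for surviving fraction (nuclei count normalised to DMSO): nuclei counted by high-content imaging of Hoechst-stained cells in laminin-coated 384-well plates, relative to 0.1% DMSO vehicle wells, with staurosporine as cell-death control.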

COc1ccc(C(=O)CC(=O)c2ccc(C(C)(C)C)cc2)cc1 [Avobenzone]
Settings	phenotypic distance	surviving fraction
E13 [1], 4.1 nM	–	0.902
E13 [1], 12.3 nM	–	1.02
E13 [1], 37 nM	–	1.08
E13 [1], 111.1 nM	–	0.948
E13 [1], 333.3 nM	–	1.11
E13 [1], 1000 nM	–	1.07
E13 [1], 3000 nM	–	0.8
E13 [8], 4.1 nM	1.11	–
E13 [8], 12.3 nM	0.579	–
E13 [8], 37 nM	0.386	–
E13 [8], 111.1 nM	0.499	–
E13 [8], 333.3 nM	0.627	–
E13 [8], 1000 nM	0.606	–
E13 [8], 3000 nM	0.743	–
E21 [2], 4.1 nM	–	1.1
E21 [2], 12.3 nM	–	1.17
E21 [2], 37 nM	–	1.05
E21 [2], 111.1 nM	–	1.13
E21 [2], 333.3 nM	–	1.13
E21 [2], 1000 nM	–	1.07
E21 [2], 3000 nM	–	0.82
E21 [9], 4.1 nM	0.845	–
E21 [9], 12.3 nM	0.782	–
E21 [9], 37 nM	0.67	–
E21 [9], 111.1 nM	0.818	–
E21 [9], 333.3 nM	0.929	–
E21 [9], 1000 nM	0.701	–
E21 [9], 3000 nM	1.59	–
E28 [3], 4.1 nM	–	1.14
E28 [3], 12.3 nM	–	1.14
E28 [3], 37 nM	–	1.14
E28 [3], 111.1 nM	–	0.988
E28 [3], 333.3 nM	–	1.06
E28 [3], 1000 nM	–	1.12
E28 [3], 3000 nM	–	0.739
E28 [10], 4.1 nM	1.01	–
E28 [10], 12.3 nM	0.675	–
E28 [10], 37 nM	0.613	–
E28 [10], 111.1 nM	0.631	–
E28 [10], 333.3 nM	0.646	–
E28 [10], 1000 nM	0.601	–
E28 [10], 3000 nM	0.879	–
E31 [4], 4.1 nM	–	0.989
E31 [4], 12.3 nM	–	1.02
E31 [4], 37 nM	–	1.02
E31 [4], 111.1 nM	–	0.921
E31 [4], 333.3 nM	–	0.973
E31 [4], 1000 nM	–	1.06
E31 [4], 3000 nM	–	0.941
E31 [11], 4.1 nM	0.665	–
E31 [11], 12.3 nM	0.919	–
E31 [11], 37 nM	0.653	–
E31 [11], 111.1 nM	0.43	–
E31 [11], 333.3 nM	0.486	–
E31 [11], 1000 nM	0.737	–
E31 [11], 3000 nM	0.899	–
E34 [5], 4.1 nM	–	1.08
E34 [5], 12.3 nM	–	0.923
E34 [5], 37 nM	–	0.995
E34 [5], 111.1 nM	–	1.06
E34 [5], 333.3 nM	–	1.04
E34 [5], 1000 nM	–	1.03
E34 [5], 3000 nM	–	0.818
E34 [12], 4.1 nM	0.805	–
E34 [12], 12.3 nM	0.881	–
E34 [12], 37 nM	0.524	–
E34 [12], 111.1 nM	0.804	–
E34 [12], 333.3 nM	0.741	–
E34 [12], 1000 nM	0.759	–
E34 [12], 3000 nM	1.45	–
E57 [6], 4.1 nM	–	1.04
E57 [6], 12.3 nM	–	1.07
E57 [6], 37 nM	–	1.02
E57 [6], 111.1 nM	–	0.975
E57 [6], 333.3 nM	–	1.12
E57 [6], 1000 nM	–	1.03
E57 [6], 3000 nM	–	0.96
E57 [13], 4.1 nM	0.899	–
E57 [13], 12.3 nM	1.11	–
E57 [13], 37 nM	0.644	–
E57 [13], 111.1 nM	0.447	–
E57 [13], 333.3 nM	1.15	–
E57 [13], 1000 nM	0.55	–
E57 [13], 3000 nM	1.16	–
FT3469 [7], 4.1 nM	–	1.08
FT3469 [7], 12.3 nM	–	1.38
FT3469 [7], 37 nM	–	1
FT3469 [7], 111.1 nM	–	1.2
FT3469 [7], 333.3 nM	–	0.863
FT3469 [7], 1000 nM	–	1.25
FT3469 [7], 3000 nM	–	0.973
FT3469 [14], 4.1 nM	0.579	–
FT3469 [14], 12.3 nM	0.768	–
FT3469 [14], 37 nM	0.688	–
FT3469 [14], 111.1 nM	0.824	–
FT3469 [14], 333.3 nM	0.788	–
FT3469 [14], 1000 nM	2.5	–
FT3469 [14], 3000 nM	0.402	–
